# Assay results reported in US20230026232A1, “AHR INHIBITORS AND USES THEREOF” (Ikena Oncology, Inc., priority 2019, published 2023).
# Legend:
# [1] = test system: other receptors, transporters, and kinases; experiment: Selectivity for AHR over other receptors, transporters, and kinases
# Text: Compound A is a selective AHR antagonist being developed as an orally administered therapeutic. […] Compound A inhibits CYP1A1 and interleukin (IL)-22 gene expression and leads to an increase in pro-inflammatory cytokines, such as IL-2 and IL-9.
# [2] = biological target: T1, AHR (Homo sapiens, UniProt P35869); experiment: IL-22 secretion by CD3/CD28 activated human T cells (Meso Scale Discovery); assay type: cell-based; parameters: endogenous in cells; conditions: 48 hours
# T1 sequence (P35869 11-848): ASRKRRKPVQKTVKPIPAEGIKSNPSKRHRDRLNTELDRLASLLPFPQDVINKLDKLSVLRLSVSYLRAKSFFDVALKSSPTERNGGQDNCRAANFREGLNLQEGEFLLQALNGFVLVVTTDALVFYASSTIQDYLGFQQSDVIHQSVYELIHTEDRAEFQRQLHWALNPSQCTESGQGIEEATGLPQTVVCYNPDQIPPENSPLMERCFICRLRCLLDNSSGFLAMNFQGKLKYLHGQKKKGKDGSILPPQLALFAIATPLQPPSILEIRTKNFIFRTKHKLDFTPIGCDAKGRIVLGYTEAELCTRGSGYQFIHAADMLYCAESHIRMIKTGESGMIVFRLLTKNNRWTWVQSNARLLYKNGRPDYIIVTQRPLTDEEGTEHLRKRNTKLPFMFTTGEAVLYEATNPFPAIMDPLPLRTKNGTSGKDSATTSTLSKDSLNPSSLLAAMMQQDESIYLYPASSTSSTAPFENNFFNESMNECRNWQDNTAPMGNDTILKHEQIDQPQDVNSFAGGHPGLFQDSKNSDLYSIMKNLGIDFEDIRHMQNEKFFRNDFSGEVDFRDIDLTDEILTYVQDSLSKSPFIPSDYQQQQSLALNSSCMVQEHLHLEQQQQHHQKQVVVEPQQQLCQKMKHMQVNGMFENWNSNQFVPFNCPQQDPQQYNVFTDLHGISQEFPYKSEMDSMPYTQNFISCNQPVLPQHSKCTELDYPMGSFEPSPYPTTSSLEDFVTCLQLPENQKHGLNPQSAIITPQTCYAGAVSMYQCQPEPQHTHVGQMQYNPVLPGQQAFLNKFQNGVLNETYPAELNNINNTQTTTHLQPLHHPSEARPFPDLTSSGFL
# Protocol: AHR plays a key role in immune cells and its' inhibition is proposed to reverse immune suppression and activate T cells. The ability of Compound A to inhibit AHR-dependent CYP1A1 expression and cytokine production was assessed in primary human T cells. AHR directly regulates the expression of the immune suppressive cytokine IL-22. Human T cells isolated from healthy donor PBMCs were activated with CD3/CD28 tetramer and incubated for 24 hours with Compound A. Cell pellets were processed for RNA isolation and CYP1A1 analysis by quantitative reverse-transcriptase polymerase chain reaction. For the cytokine analysis assay, CD3/CD28 activated T cells were treated with Compound A, and culture supernatants were collected after 48 hours for analysis of IL-22 levels using Meso Scale Discovery V-plex IL-22 plates. Compound A inhibited AHR-dependent gene expression in activated human T cells by decreasing expression of CYP1A1 in a concentration-dependent manner.
# [3] = Glass transition temperature (Tg) by MDSC; assay type: physicochemical; conditions: for Tg: bulk API, melt-quench amorphous, MDSC
# Protocol: DSC was performed using a TA Instruments Discovery DSC2500 differential scanning calorimeter equipped with a TA instruments Refrigerated Cooling System 90 operating in either modulated or ramp mode. DSC was used to measure thermodynamic events and characteristics of Compound A free base and hemi-maleate salt, and subsequent SDIs. Events observed include the glass transition temperature (Tg), cold crystallization (Tc), defined as a crystallization event at a temperature lower than the melt temperature, and melting temperature (Tm). SDI samples were placed in non-hermetic aluminum pans and heated at a constant rate of 2.0° C./min over a 5-200° C. temperature range. The system was purged by nitrogen flow at 50 mL/min to ensure inert atmosphere through the course of measurement. […] Amorphous API was successfully created by rapidly quenching liquefied Compound A using Refrigerated Cooling System 90. The resulting amorphous API was analyzed by modulated DSC. A summary of DSC analysis parameters can be found in Tables 2 and 3.
# Thermal properties of both Compound A forms were measured by both DSC and MDSC. […] The Tg of each was measured via a melt-quench technique, heating past its melting temperature and rapidly cooling to trap the molten material in an amorphous state. […] (FIG. 2/Table 11).
# Samples were stored at the elevated humidity conditions for 18 hours at ambient temperature before sealing in hermetic pans and analysis by MDSC. Results are reported as a function of relative humidity (RH) in FIG. 13 and Table 20. All lead SDI formulations (HPMCAS-H and PVP VA64 dispersions) have a Tg that is low at elevated humidity conditions and is predicted to require conservative packaging (i.e., desiccant, foil-foil seal, or etc.) to obtain sufficient long-term physical stability of the SDI. To ensure long-term physical stability in open packaging at all ICH conditions, it is desirable that the SDI have a Tg higher than 50° C. at 75% RH, and ideally higher than 60° C. at 75% RH.
# [4] = test system: CT26.WT; experiment: CT26.WT syngeneic colorectal cancer model, tumor growth, survival and re-challenge; assay type: in vivo, Balb/cJ mice
# Protocol: The effect of single agent Compound A, and Compound A in combination with anti-PD-1 antibody (BioXcell RMP1-14) on TGI and tumor survival was evaluated in the CT26.WT syngeneic model of colorectal cancer. Balb/cJ female mice were inoculated subcutaneously with tumor cells and 4 days after inoculation, Compound A (10 mg/kg or 25 mg/kg) or Vehicle was administered orally QD for a total of 53 doses. Concurrently, anti-PD-1 antibody (10 mg/kg) was administered IP twice a week for a total of 5 doses.
# At ≥95 days after the appearance of CRs in mice treated with the combination of Compound A and anti-PD-1 antibody, the responder animals were re-challenged with CT26.WT cells. Five naïve mice were also injected with CT26.WT cells as a positive control for tumor formation.
# [5] = biological target: T1, AHR; experiment: HepG2 DRE-Luc reporter assay, VAF347-stimulated luciferase expression; assay type: cell-based; parameters: endogenous in cells; host or cells: HepG2 DRE-Luc reporter cell line; conditions: 80 nM VAF347, n=2
# Protocol: In vitro experiments were conducted to examine the inhibitory activity of Compound A for AHR-mediated transcriptional activation in the HepG2 DRE-Luc reporter cell line. This human hepatoma cell line stably expresses a luciferase reporter gene under control of AHR-responsive DRE enhancer elements (Han, 2004). HepG2 DRE-Luc reporter cells were treated with 80 nM VAF347 to activate AHR.
# The inhibitory activity of the human Compound A metabolites, Compound B and Compound C was also determined in the HepG2 DRE-Luc cell line. Reporter cells were stimulated with 80 nM VAF347 and each metabolite at multiple concentrations.
smiles,measurement,setting,value
"CC(C)c1cnn2c(N[C@@H]3CCc4[nH]c5ccccc5c4C3)nc(-c3cncc(F)c3)nc12 [Compound A, (R)—N-(2-(5-fluoropyridin-3-yl)-8-isopropylpyrazolo[1,5-a][1,3,5]triazin-4-yl)-2,3,4,9-tetrahydro-1H-carbazol-3-amine]","selectivity for AHR over other receptors, transporters, and kinases",[1],highly selective
same,IC50,[2],0.007 µM
same,Tm/Tg ratio,"[3]; K/K, indicator of physical stability",1.30
same,Tg,[3]; listed as Compound A Free Base,95 °C
same,Tg,[3]; listed as free base,95 °C
same,TGI relative to vehicle treated mice,[4]; Compound A 10 mg/kg PO QD (alone or with anti-PD-1 10 mg/kg IP twice a week),39.8%
same,TGI relative to vehicle treated mice,[4]; Compound A 25 mg/kg PO QD (alone or with anti-PD-1 10 mg/kg IP twice a week),40.9%
same,IC50,[5],0.091 µM
